The results in this text go back to patent US20250320224A1 (DOMAIN THERAPEUTICS, priority 2022, published 2025).

SMILES strings stand for the structures.

This assay deals with T1, human PAR-2 (hPAR-2) receptor (Homo sapiens, UniProt P55085).
T1 construct: expressed in HEK-293 cells in an endogenous manner; endogenous in cells; host or cells: HEK-293
T1 sequence (P55085 26-397): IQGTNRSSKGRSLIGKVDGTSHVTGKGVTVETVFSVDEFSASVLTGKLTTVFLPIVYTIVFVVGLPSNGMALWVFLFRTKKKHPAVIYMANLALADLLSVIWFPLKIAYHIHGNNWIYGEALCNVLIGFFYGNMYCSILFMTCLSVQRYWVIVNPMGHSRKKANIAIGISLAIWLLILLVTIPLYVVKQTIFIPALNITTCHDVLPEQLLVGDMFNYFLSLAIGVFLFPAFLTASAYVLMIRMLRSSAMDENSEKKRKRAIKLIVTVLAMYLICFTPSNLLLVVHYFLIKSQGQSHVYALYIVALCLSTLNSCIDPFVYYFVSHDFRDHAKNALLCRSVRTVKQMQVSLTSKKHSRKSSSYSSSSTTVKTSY
The assay can be described thus: In vitro human PAR-2 functional antagonist activity using calcium assays. The following applies: hPAR-2 endogenously expressed in HEK-293 cells; stimulated by 2-Furoyl-LIGRLO-NH2 peptide; Fluo4AM intracellular calcium, FLIPR Tetra. In kind it is cell-based. Here is the method: Example 283: In Vitro Human PAR-2 Functional Antagonist Activity Using Calcium Assays
Examples of the present invention were tested successively for their agonist and antagonist activities on human PAR-2 (hPAR-2) receptor expressed in HEK-293 cells in an endogenous manner. Compounds exert agonist activity if, by themselves in absence of the 2-Furoyl-LIGRLO-NH2 peptide (selective hPAR-2 agonist), they activate PAR-2; they exert antagonist activity if they decrease the action of the 2-Furoyl-LIGRLO-NH2 peptide on the receptor. The assay used to determine compound activity is based on calcium measurement.
Cell Culture: HEK-293 cells were maintained in Dulbecco's Modified Eagle's Medium supplemented with 10% Foetal Calf Serum, 1% Penicillin/Streptomycin at 37° C./5% CO2. Flasks for tests (F75) are seeded with 6e+06 cells 24 h before the experiment at 37° C./5% CO2.
Calcium assay: Receptor activity was detected by changes in intracellular calcium measured using the fluorescent Ca^2+ sensitive dye, Fluo4AM (Molecular Probes).
The day of the assay, medium was replaced by assay buffer (HBSS 1× (Gibco 14175-053), Hepes 20 mM, MgSO4-7H2O 1 mM, Na2CO3 3.3 mM, CaCl2—2H2O 2.6 mM, 0.5% bovine serum albumin (BSA), Probenecid 2.5 mM, 0.1 mg/mL Pluronic Acid) and complemented with 1 μM Fluo4AM and cells were incubated during 1:30 h at 37° C.
Cells were then detached, resuspended in assay buffer and seeded in 384 wells, transparent-flat bottom black walled plates (2e+04 cells per well). Plates were incubated at +22° C. for 20 min. Compounds stock solutions were prepared in 100% DMSO and dilutions in test buffer were carried out in polypropylene plates with a digital dispenser (D300e, Tecan). Compounds were added to the cells and intracellular Ca^2+ measurements were collected at the same time on FLIPR Tetra® (Molecular Devices) with specific filters (Exc: 470-495 nm/Em: 515-575 nm).
Agonist and antagonist activities of compounds were consecutively evaluated on the same cell plate. Agonist activity was first measured after 10 min incubation with the compound alone. Then, cells were stimulated by an […] of the 2-Furoyl-LIGRLO-NH2 peptide and fluorescence was recorded for an additional 5 min. EC50 of the 2-Furoyl-LIGRLO-NH2 peptide was the concentration giving 80% of the maximal 2-Furoyl-LIGRLO-NH2 response. Agonist activities are evaluated in comparison to basal signals evoked by assay buffer or maximal 2-Furoyl-LIGRLO-NH2 response. […] Antagonist activities are evaluated in comparison to basal signals evoked by assay buffer or EC50 of 2-Furoyl-LIGRLO-NH2 alone.
One may read the IC50 as the concentration that gives 50% inhibition. As to `CC1(C)CN(c2ccc(Cl)c(F)c2)c2ccc(C(=O)N3[C@@H]4CC[C@H]3CC(CC(=O)O)C4)nc21` (mixture of isomers) [Example 130, 2-((1R,5S)-8-(1-(4-chloro-3-fluorophenyl)-3,3-dimethyl-2,3-dihydro-1H-pyrrolo[3,2-b]pyridine-5-carbonyl)-8-azabicyclo[3.2.1]octan-3-yl)acetic acid], the IC50 lay within 500 to 10000 nM.

On to `CC1(C)C(=O)NCCN1C(=O)c1ccc2c(n1)[C@]1(C)CCO[C@@H]1N2c1ccc(Cl)c(F)c1` (racemic) [Example 61, cis-4-(8-(4-chloro-3-fluorophenyl)-3a-methyl-3,3a,8,8a-tetrahydro-2H-furo[3′,2′:4,5]pyrrolo[3,2-b]pyridine-5-carbonyl)-3,3-dimethylpiperazin-2-one], for which the IC50 is under 500 nM.

For `CC1(C)CN(c2ccc(Cl)c(F)c2)c2ccc(C(=O)N3CC[C@H](c4ccccn4)[C@H](C(=O)O)C3)nc21` (relative stereo) [Example 137, (cis)-1-(1-(4-chloro-3-fluorophenyl)-3,3-dimethyl-2,3-dihydro-1H-pyrrolo[3,2-b]pyridine-5-carbonyl)-4-(pyridin-2-yl)piperidine-3-carboxylic acid], the IC50 fell in the range of 500 to 10000 nM.

As for `CC1(C)CN(c2ccc(Cl)c(F)c2)c2ccc(C(=O)N3CC[C@@H](c4ccccn4)[C@H](C(=O)O)C3)nc21` (relative stereo) [Example 138, (trans)-1-(1-(4-chloro-3-fluorophenyl)-3,3-dimethyl-2,3-dihydro-1H-pyrrolo[3,2-b]pyridine-5-carbonyl)-4-(pyridin-2-yl)piperidine-3-carboxylic acid], the IC50 was 500 to 10000 nM.

With `CC1(C)C(=O)NCCN1C(=O)c1ccc2c(n1)[C@@]1(C)CCO[C@H]1N2c1ccc(Cl)c(F)c1` (single isomer, unassigned) [Example 62], the IC50 is under 500 nM.

For `CC1(C)C(=O)NCCN1C(=O)c1ccc2c(n1)[C@]1(C)CCO[C@@H]1N2c1ccc(Cl)c(F)c1` (single isomer, unassigned) [Example 63], the IC50 is 500 to 10000 nM.

As for `Cc1cc(N2CCN(C(=O)c3ccc4c(n3)C3(CC(C)C3)CN4c3ccc(Cl)c(F)c3)C(C)(C)C2)nc(C)c1C(=O)O` (single isomer, unassigned) [Example 156, 6-(4-(1′-(4-chloro-3-fluorophenyl)-3-methyl-1′,2′-dihydrospiro[cyclobutane-1,3′-pyrrolo[3,2-b]pyridine]-5′-carbonyl)-3,3-dimethylpiperazin-1-yl)-2,4-dimethylnicotinic acid], the half-inhibitory concentration (IC50) is under 500 nM.

Turning to `COC1CC2(C1)CN(c1ccc(Cl)c(F)c1)c1ccc(C(=O)N3CCN(c4cc(C)c(C(=O)O)c(C)n4)CC3(C)C)nc12` (single isomer, unassigned) [Example 199, 6-(4-(1′-(4-chloro-3-fluorophenyl)-3-methoxy-1′,2′-dihydrospiro[cyclobutane-1,3′-pyrrolo[3,2-b]pyridine]-5′-carbonyl)-3,3-dimethylpiperazin-1-yl)-2,4-dimethylnicotinic acid], the IC50 is under 500 nM.

Turning to `CC1(C)C(=O)NCCN1C(=O)c1ccc2c(n1)C1(CCOCC1)C(=O)N2c1ccc(Cl)c(F)c1` [Example 1, 1′-(4-chloro-3-fluorophenyl)-5′-(2,2-dimethyl-3-oxopiperazine-1-carbonyl)-2,3,5,6-tetrahydrospiro[pyran-4,3′-pyrrolo[3,2-b]pyridin]-2′(1′H)-one], the IC50 is 500 to 10000 nM.

`CC1(C)C(=O)NCCN1C(=O)c1ccc2c(n1)C1(CCCC1)C(=O)N2c1ccc(Cl)c(F)c1` [Example 2, 1′-(4-chloro-3-fluorophenyl)-5′-(2,2-dimethyl-3-oxopiperazine-1-carbonyl)spiro[cyclopentane-1,3′-pyrrolo[3,2-b]pyridin]-2′(1′H)-one]: the IC50 lay in the range of 500 to 10000 nM.

Turning to `CC1(C)C(=O)NCCN1C(=O)c1ccc2c(n1)C1(CCCC1)CN2c1ccc(Cl)c(F)c1` [Example 3, 4-(1′-(4-chloro-3-fluorophenyl)-1′,2′-dihydrospiro[cyclopentane-1,3′-pyrrolo[3,2-b]pyridine]-5′-carbonyl)-3,3-dimethylpiperazin-2-one], the IC50 was under 500 nM.

In the case of `O=C1NC(=O)C2(CCN(C(=O)c3ccc4c(n3)C3(CCCC3)CN4c3ccc(Cl)c(F)c3)CC2)N1` [Example 4, 8-(1′-(4-chloro-3-fluorophenyl)-1′,2′-dihydrospiro[cyclopentane-1,3′-pyrrolo[3,2-b]pyridine]-5′-carbonyl)-1,3,8-triazaspiro[4.5]decane-2,4-dione], the IC50 was under 500 nM.

On to `CC1(C)CN(C(=O)c2ccc3c(n2)C2(CCCC2)CN3c2ccc(Cl)c(F)c2)CCC1C(=O)O` (centres unmarked) [Example 6, 1-(1′-(4-chloro-3-fluorophenyl)-1′,2′-dihydrospiro[cyclopentane-1,3′-pyrrolo[3,2-b]pyridine]-5′-carbonyl)-3,3-dimethylpiperidine-4-carboxylic acid], for which the IC50 fell in the range of 500 to 10000 nM.

For `Cc1cc(N2CCN(C(=O)c3ccc4c(n3)C3(CCCC3)CN4c3ccc(Cl)c(F)c3)C(C)(C)C2)nc(C)c1C(=O)O` [Example 8, 6-(4-(1′-(4-chloro-3-fluorophenyl)-1′,2′-dihydrospiro[cyclopentane-1,3′-pyrrolo[3,2-b]pyridine]-5′-carbonyl)-3,3-dimethylpiperazin-1-yl)-2,4-dimethylnicotinic acid], the IC50 was under 500 nM.

Regarding `CC1(C)C(=O)NCCN1C(=O)c1ccc2c(n1)C1(CCCC1)CN2c1cccc(Cl)c1` [Example 9, 4-(1′-(3-chlorophenyl)-1′,2′-dihydrospiro[cyclopentane-1,3′-pyrrolo[3,2-b]pyridine]-5′-carbonyl)-3,3-dimethylpiperazin-2-one], the IC50 was under 500 nM.

`CC1(C)C(=O)NCCN1C(=O)c1ccc2c(n1)C1(CCCC1)CN2c1ccccc1Cl` [Example 10, 4-(1′-(2-chlorophenyl)-1′,2′-dihydrospiro[cyclopentane-1,3′-pyrrolo[3,2-b]pyridine]-5′-carbonyl)-3,3-dimethylpiperazin-2-one]: the IC50 lay within 500 to 10000 nM.

On to `CC1(C)CN(c2ccsc2)c2ccc(C(=O)N3CCNC(=O)C3(C)C)nc21` [Example 11, 4-(3,3-dimethyl-1-(thiophen-3-yl)-2,3-dihydro-1H-pyrrolo[3,2-b]pyridine-5-carbonyl)-3,3-dimethylpiperazin-2-one], for which the IC50 lay within 500 to 10000 nM.

`CC1(C)CN(c2ccc(F)c(F)c2)c2ccc(C(=O)N3CCNC(=O)C3(C)C)nc21` [Example 12, 4-(1-(3,4-difluorophenyl)-3,3-dimethyl-2,3-dihydro-1H-pyrrolo[3,2-b]pyridine-5-carbonyl)-3,3-dimethylpiperazin-2-one]: the IC50 was under 500 nM.

For the molecule `Cc1cc(N2CCN(C(=O)c3ccc4c(n3)C(C)(C)CN4c3ccc(F)c(F)c3)C(C)(C)C2)nc(C)c1C(=O)O` [Example 14, 6-(4-(1-(3,4-difluorophenyl)-3,3-dimethyl-2,3-dihydro-1H-pyrrolo[3,2-b]pyridine-5-carbonyl)-3,3-dimethylpiperazin-1-yl)-2,4-dimethylnicotinic acid], the IC50 was under 500 nM.

Regarding `CC1(C)CN(c2ccc(F)cc2)c2ccc(C(=O)N3CCNC(=O)C3(C)C)nc21` [Example 15, 4-(1-(4-fluorophenyl)-3,3-dimethyl-2,3-dihydro-1H-pyrrolo[3,2-b]pyridine-5-carbonyl)-3,3-dimethylpiperazin-2-one], the IC50 is under 500 nM.
